Experimental data: patent US8603527B2, “Pharmaceutical formulations of a substituted diaminopurine” (Signal Pharmaceuticals, LLC, priority 2010, dated 2013)
Read-outs that look alike come from different tables or passages of the source.

Experiments:
[1] = tested on: time-mated female New Zealand White Hra:(NZW)SPF rabbits; details: rabbit, in vivo, 10 mg/kg/day
Source text: (§1) Additionally, four groups of five animals/group served as toxicokinetic (TK) animals and received the vehicle or test article in the same manner and dose levels as the main study groups. All time-mated females arrived at the laboratory on GD 0, the day evidence of mating was observed.

[2] = Toxicokinetics in pregnant female rats; assay type: in vivo, rat; details: for concentration at 2 h / AUC / Cmax / Kp: female, rat; for concentration at 2 h / Kp: oral; for concentration at 2 h / Kp / Fetus concentration (pooled fetal blood samples): rats; for concentration at 2 h / Fetus concentration (pooled fetal blood samples): 2 hours after dosing on Gestation Day 17; for AUC / Cmax: pregnant rats; for Kp: fetal plasma / maternal plasma, Gestation Day 17, calculated from individual ratios, read-out: Fetal:Maternal Plasma Ratio
Experimental: Compound I was readily absorbed in pregnant rats following daily oral administration of Compound I for 11 days (GD 6-16). Exposures for Compound I increased in an approximately dose-proportional manner from 25 to 100 mg/kg/day.

[3] = Oral developmental toxicity study in the rabbit; details: female, New Zealand White Hra:(NZW)SPF, rabbit, in vivo, oral
Source text: as §1

[4] = tested on: time-mated female New Zealand White Hra:(NZW)SPF rabbits; assay: Oral developmental toxicity study in the rabbit; details: rabbits
Source text: as §1

[5] = Pharmacokinetics of a single ascending oral dose in healthy male subjects; assay type: in vivo, human; details: for AUC(0-inf) / AUC(0-t) / Cmax / half-life / Vd/F / Tmax: human, in vivo; for Vd/F: read-out: Vz/F
Experimental: Methods: The study was a randomized, double-blind, placebo-controlled, single-ascending-dose trial. Forty-five healthy male subjects were enrolled into 1 of the 5 cohorts (active:placebo=7:2 per cohort). Subjects received single oral doses of 5 mg, 25 mg, 50 mg, 100 mg or 200 mg of unformulated Compound I in a capsule, or matching placebo.

[6] = Toxicokinetics in pregnant female rabbits; assay type: in vivo, rabbit; details: for Kp / AUC / Cmax: female, New Zealand White Hra:(NZW)SPF, rabbit; for Kp: fetal plasma / maternal plasma, oral, Gestation Day 19, calculated from individual ratios, read-out: Fetal:Maternal Plasma Ratio; for Kp / Doe plasma concentration / Fetus concentration (pooled fetal blood samples): rabbits; for AUC / Cmax: po, pregnant rabbits; for Doe plasma concentration / Fetus concentration (pooled fetal blood samples): 2 hours after dosing on Gestation Day 19
Source text: as §1

[7] = CD [Crl:CD(SD)], plasma, 25 mg/kg/day, 25 mg/kg/d oral, Gestation Day 16
[8] = CD [Crl:CD(SD)], plasma, 50 mg/kg/day, 50 mg/kg/d oral, Gestation Day 16
[9] = CD [Crl:CD(SD)], plasma, 100 mg/kg/day, 100 mg/kg/d oral, Gestation Day 16
[10] = Crl:CD(SD), plasma, 25 mg/kg/day, 25 mg/kg/d oral, Gestation Day 6
[11] = Crl:CD(SD), plasma, 50 mg/kg/day, 50 mg/kg/d oral, Gestation Day 6
[12] = Crl:CD(SD), plasma, 100 mg/kg/day, 100 mg/kg/d oral, Gestation Day 6
[13] = single oral dose 5 mg, unformulated in capsule, healthy male subjects, geometric mean
[14] = single oral dose 25 mg, unformulated in capsule, healthy male subjects, geometric mean
[15] = single oral dose 50 mg, unformulated in capsule, healthy male subjects, geometric mean
[16] = single oral dose 100 mg, unformulated in capsule, healthy male subjects, geometric mean
[17] = single oral dose 200 mg, unformulated in capsule, healthy male subjects, geometric mean
[18] = male, single oral doses 5-200 mg
[19] = plasma, 10 mg/kg/day, 10 mg/kg/d oral, Gestation Day 7
[20] = plasma, 10 mg/kg/day, 10 mg/kg/d oral, Gestation Day 18
[21] = plasma, 20 mg/kg/day, 20 mg/kg/d oral, Gestation Day 7
[22] = plasma, 40 mg/kg/day, 40 mg/kg/d oral, Gestation Day 7
[23] = plasma, 40 mg/kg/day, 40 mg/kg/d oral, Gestation Day 18

O[C@H]1CC[C@H](Nc2ncc3nc(Nc4c(F)cc(F)cc4F)n([C@H]4CCOC4)c3n2)CC1 [Compound I, 4-((9-((3S)-tetrahydro-3-furanyl)-8-((2,4,6-trifluorophenyl)amino)-9H-purin-2-yl)amino)-trans-cyclohexanol]
maternal or developmental toxicity [1]: No maternal or developmental toxicity
concentration at 2 h ([2]; CD [Crl:CD(SD)], fetal blood (pooled), 25 mg/kg/day, 25 mg/kg/d, read-out: Fetus concentration (pooled fetal blood samples)): 897 ng/mL
AUC [2, 7]: 19700 ng·h/mL
Cmax [2, 7]: 1930 ng/mL
AUC [2, 8]: 42300 ng·h/mL
Cmax [2, 8]: 4210 ng/mL
AUC [2, 9]: 96900 ng·h/mL
Cmax [2, 9]: 8130 ng/mL
concentration at 2 h ([2]; CD [Crl:CD(SD)], plasma, 25 mg/kg/day, 25 mg/kg/d, read-out: Dam plasma concentration): 1520 ng/mL
concentration at 2 h ([2]; CD [Crl:CD(SD)], plasma, 50 mg/kg/day, 50 mg/kg/d, read-out: Dam plasma concentration): 3410 ng/mL
concentration at 2 h ([2]; CD [Crl:CD(SD)], plasma, 100 mg/kg/day, 100 mg/kg/d, read-out: Dam plasma concentration): 6650 ng/mL
Kp ([2]; Crl:CD(SD), 25 mg/kg/day, 25 mg/kg/d): 0.59
Kp ([2]; Crl:CD(SD), 50 mg/kg/day, 50 mg/kg/d): 0.61
Kp ([2]; Crl:CD(SD), 100 mg/kg/day, 100 mg/kg/d): 0.61
AUC [2, 10]: 19500 ng·h/mL
Cmax [2, 10]: 2420 ng/mL
AUC [2, 11]: 49500 ng·h/mL
Cmax [2, 11]: 3920 ng/mL
AUC [2, 12]: 102000 ng·h/mL
Cmax [2, 12]: 6790 ng/mL
maternal AUC as fold of human AUC ([2]; rats at LOEL 25 mg/kg/day vs human 100 mg BID): ~0.8 fold
maternal AUC as fold of human AUC ([2]; rats at LOEL 25 mg/kg/day vs human 200 mg BID): ~0.4 fold
Fetus concentration (pooled fetal blood samples) ([2]; 50 mg/kg/d): 2115 ng/mL
Fetus concentration (pooled fetal blood samples) ([2]; 100 mg/kg/d): 4012 ng/mL
NOAEL [3]: 20 mg/kg/day
NOEL for developmental toxicity [4]: 20 mg/kg/day
doses at which developmental effects were observed [4]: 40 mg/kg/day
teratogenicity [4]: teratogenic
litters with viable fetuses for evaluation on GD 29 ([4]; 10 mg/kg/day): 19
main study pregnancy index ([4]; 10 mg/kg/day): 95%
litters with viable fetuses for evaluation on GD 29 ([4]; 20 mg/kg/day): 20
main study pregnancy index ([4]; 20 mg/kg/day): 100%
litters with viable fetuses for evaluation on GD 29 ([4]; 40 mg/kg/day): 10
main study pregnancy index ([4]; 40 mg/kg/day): 95%
litters containing one or more fetuses with a malformation ([4]; 40 mg/kg/day, GD 29, controls 25%): 70%
AUC(0-inf) [5, 13]: 625 ng·h/mL
AUC(0-t) [5, 13]: 567 ng·h/mL
Cmax [5, 13]: 34.7 ng/mL
half-life [5, 13]: 19.1 h
Vd/F [5, 13]: 221 L
Tmax ([5]; single oral dose 5 mg, unformulated in capsule, healthy male subjects, median (min-max), read-out: Tmax): 1.5 h
AUC(0-inf) [5, 14]: 3600 ng·h/mL
AUC(0-t) [5, 14]: 3150 ng·h/mL
Cmax [5, 14]: 163 ng/mL
half-life [5, 14]: 24.1 h
Vd/F [5, 14]: 241 L
Tmax ([5]; single oral dose 25 mg, unformulated in capsule, healthy male subjects, median (min-max), read-out: Tmax): 1.5 h
AUC(0-inf) [5, 15]: 7320 ng·h/mL
AUC(0-t) [5, 15]: 6700 ng·h/mL
Cmax [5, 15]: 367 ng/mL
half-life [5, 15]: 20.4 h
Vd/F [5, 15]: 202 L
Tmax ([5]; single oral dose 50 mg, unformulated in capsule, healthy male subjects, median (min-max), read-out: Tmax): 2 h
AUC(0-inf) [5, 16]: 13600 ng·h/mL
AUC(0-t) [5, 16]: 10800 ng·h/mL
Cmax [5, 16]: 471 ng/mL
half-life [5, 16]: 27.5 h
Vd/F [5, 16]: 293 L
Tmax ([5]; single oral dose 100 mg, unformulated in capsule, healthy male subjects, median (min-max), read-out: Tmax): 2 h
AUC(0-inf) [5, 17]: 26400 ng·h/mL
AUC(0-t) [5, 17]: 23100 ng·h/mL
Cmax [5, 17]: 1430 ng/mL
half-life [5, 17]: 25 h
Vd/F [5, 17]: 273 L
Tmax ([5]; single oral dose 200 mg, unformulated in capsule, healthy male subjects, median (min-max), read-out: Tmax): 1.5 h
AUC(0-inf) [5, 18]: 600 to 27000 ng·h/mL
AUC(0-t) [5, 18]: 500 to 24000 ng·h/mL
Cmax [5, 18]: 30 to 1500 ng/mL
half-life [5, 18]: 19 to 28 h
Tmax ([5]; male, single oral doses 5-200 mg, unformulated in a capsule, healthy males, read-out: median Tmax): 1.5 to 2 h
Vd/F [5, 18]: 200 to 300 L
urinary excretion of unchanged Compound I ([5]; over 72 hrs post-dose, single oral doses): 9-13 % of the administered dose
CLF [5, 13]: 133.36 mL/min
CLF [5, 14]: 115.58 mL/min
CLF [5, 15]: 113.88 mL/min
CLF [5, 16]: 122.89 mL/min
CLF [5, 17]: 126.02 mL/min
CLF ([5]; single oral doses 5-200 mg): 100 to 140 mL/min
Kp ([6]; 10 mg/kg/day, 10 mg/kg/d): 0.1
Kp ([6]; 20 mg/kg/day, 20 mg/kg/d): 0.09
Kp ([6]; 40 mg/kg/day, 40 mg/kg/d): 0.24
AUC ([6]; in vivo, 20 mg/kg/day, 20 mg/kg/d oral, Gestation Day 18): 85000 ng·h/mL
AUC [6, 19]: 35200 ng·h/mL
Cmax [6, 19]: 6520 ng/mL
AUC [6, 20]: 39300 ng·h/mL
Cmax [6, 20]: 6730 ng/mL
AUC [6, 21]: 79100 ng·h/mL
Cmax [6, 21]: 12500 ng/mL
Cmax ([6]; plasma, 20 mg/kg/day, 20 mg/kg/d oral, Gestation Day 18): 13200 ng/mL
AUC [6, 22]: 152000 ng·h/mL
Cmax [6, 22]: 21200 ng/mL
AUC [6, 23]: 152000 ng·h/mL
Cmax [6, 23]: 21500 ng/mL
maternal AUC as fold of human AUC ([6]; rabbits at NOAEL 20 mg/kg/day vs human 100 mg BID): ~3.4 fold
maternal AUC as fold of human AUC ([6]; rabbits at NOAEL 20 mg/kg/day vs human 200 mg BID): ~1.6 fold
Doe plasma concentration ([6]; 10 mg/kg/d): 4916 ng/mL
Fetus concentration (pooled fetal blood samples) ([6]; 10 mg/kg/d): 465.7 ng/mL
Doe plasma concentration ([6]; 20 mg/kg/d): 9217 ng/mL
Fetus concentration (pooled fetal blood samples) ([6]; 20 mg/kg/d): 870.7 ng/mL
Doe plasma concentration ([6]; 40 mg/kg/d): 15594 ng/mL
Fetus concentration (pooled fetal blood samples) ([6]; 40 mg/kg/d): 3426 ng/mL
